Results as given in patent publication US10954200B1, “Anti-angiogenesis compound” (KING SAUD UNIVERSITY, priority 2019, dated 2021).

Legend:
[1] = test system: Hela cells; assay: Trypan blue dye exclusion assay, Hela; format: cell-based; settings: Homo sapiens, 48 h, read-out: IC50 value (μM) against Hela cells, Trypan blue assay
Method: (§1) Breast cancer cells (MCF-7), lung cancer cells (A549), Hela cells, and peripheral blood mononuclear cells (PBMC) were purchased from the National Center for Cell Sciences (NCCS), Pune, India. The cancer cells were maintained in Dulbecco's modified eagles medium (DMEM), supplemented with 2 mM 1-glutamine and balanced salt solution (BSS), adjusted to contain 1.5 g/L Na2CO3, 0.1 mM nonessential amino acids, 1 mM sodium pyruvate, 2 mM 1-glutamine, 1.5 g/L glucose, 10 mM (4-(2-hydroxyethyl)-1-piperazineethane sulfonic acid) (HEPES), and 10% fetal bovine serum (GIBCO, USA). Penicillin and streptomycin (100 IU/100 μg) were adjusted to 1 mL/L. The cells were maintained at 37° C. with 5% CO2 in a humidified CO2 incubator.
(§2) The cytotoxic effects of synthesized compounds on various types of cancer cells were determined by trypan blue dye exclusion assay. The cultured cells were treated with the synthesized compounds and incubated for 48 h. After the incubation period, the cells were detached by 0.5% trypan-EDTA solution, harvested by centrifugation at 3000 rpm for 5 minutes and diluted in 1 ml of PBS. […] About 20 μl of cell suspensions were carefully and continuously filled in the haemocytometer chamber and viable cells were counted in 1×1 mm squares, four chambers and the average number of cells per square determined. Total viable cells were determined using the following formula, […]

[2] = test system: cancer cells; assay: MTT and trypan blue assays, overall IC50; format: cell-based; settings: read-out: anti-angiogenesis effect, IC50 values
Method: (§3) The inhibitory concentration (IC50) value was evaluated using an MTT [3-(4,5-dimethylthiazol-2-yl)-2,5-diphenyltetrazolium bromide] assay. Cancer cells were grown (1×10^4 cells/well) in a 96-well plate for 48 h to 75% confluence. The medium was replaced with fresh medium containing serially diluted synthesized compounds, and the cells were further incubated for 48 h. The culture medium was removed, and 100 μL of the MTT [3-(4,5-dimethylthiozol-2-yl)-3,5-diphenyl tetrazolium bromide] (Hi-Media, Mumbai, India) solution was added to each well and incubated at 37° C. for 4 h. After removal of the supernatant, 50 μL of DMSO was added to each of the wells and incubated for 10 min to solubilize the formazan crystals. The optical density was measured at 620 nm in an ELISA multiwell plate reader (Thermo Multiskan EX, USA). The OD value was used to calculate the percentage of viability using the following formula.
The cytotoxic effects of synthesized compounds on various types of cancer cells were determined by trypan blue dye exclusion assay. […] About 20 μl of cell suspensions were carefully and continuously filled in the haemocytometer chamber and viable cells were counted in 1×1 mm squares, four chambers and the average number of cells per square determined. Total viable cells were determined using the following formula, […]

[3] = test system: caspase-3; assay: Caspase-3 colorimetric assay; format: cell-based, human
Method: Using CPP32/Caspase-3 Colorimetric Assay Kit, the activated caspase was estimated as per manufacturer's protocol. The buffers used in the experiment were those supplied along with the kit. A549 cells (8×10^5 per 12.5 cm^2 culture flasks) were seeded with their respective growth medium and incubated for 24 h at 37° C. with/without 5% CO2. Then, confluent cells were added with the respective drug medium while maintaining an untreated group as a control. Cultures were incubated for 6 h, maintaining the same conditions, 0.1 mM Hydrogen Peroxide (H2O2) and 10 μM standard drug were used as positive control for activation of caspase-3. After treatment incubation, the detached cells in the supernatant were collected, and the adherent cells were trypsinized to add into the respective tubes. Subsequently, tubes were centrifuged at 1500 rpm for 10 min to acquire a cell pellet. […] The […] was transferred to fresh tubes and the protein concentrations of samples were determined by employing Bradford assay. […] Post-incubation, the plate was read at 405 nm in a Dynex Opsys MRTM Microplate Reader (Dynex Technologies, VA, USA). Percentage caspase-3 activation was calculated using the following formula: % Caspase-3 activation=[(At−Ac)/Ac]×100
“At” represents the mean absorbance of test wells and “Ac” represents the mean absorbance of the control wells.

[4] = test system: A549 cells; assay: MTT cell viability assay, A549; format: cell-based; settings: Homo sapiens, A549, 48 h; read-out: IC50 value (μM) against A549 cells, MTT assay
Method: as §1
as §3, with “After removal of the supernatant, 50 μL of DMSO was added to each of the wells and incubated for 10 min to solubilize the formazan crystals.” left out, “The OD value was used to calculate the percentage of viability using the following formula.” left out

[5] = test system: PBMC cells; assay: Trypan blue dye exclusion assay, PBMC; format: cell-based, human; settings: 48 h, read-out: IC50 value (μM) against PBMC cells, Trypan blue assay
Method: as §1, §2

[6] = test system: EAC induced angiogenesis in peritoneum; assay: Peritoneal angiogenesis assay; format: in vivo, Swiss albino mice
Method: (§4) The effect of potent synthesized compound BAMC on the modulation of neovessel and tumor growth was verified in EAC bearing animals. The EAC tumor bearing mice were grouped separately at two different concentrations (25 and 50 mg/Kg, b.w/i.p) of potent synthesized compounds and individually the groups were treated using a 26 gauge needle. Then, after the onset of tumor on the 4th day, three doses were given on every alternative day. The growth of the tumor was monitored by taking the body weight of the animals every day. Then, control animals were injected with 0.2 ml of saline (i.p) on every alternative day. In each treatment, at least six mice were taken and each experiment was repeated thrice. After the completion of treatment, the animals from each group were sacrificed on the 10th day and the EAC cells along with ascites fluid were harvested and the quantity was recorded. The peritoneum of the mice was cut open and the inner lining of the peritoneal cavity was examined for angiogenesis (vasculature) in compound-treated, tumor bearing mice. Finally, the inner lining of normal mice was also examined for vasculature and photographed using Sony steady shot DSC-W610 camera. These sets of animals were used to study the survivability analysis after treatment until their death.

[7] = test system: EAC tumor; assay: In vivo EAC ascites tumor growth; settings: for decrease of tumor volume, % of inhibition: three doses on alternate days
Method: The EAC tumor was obtained from Mahajana Education Center, BOC, in Biotechnology. Microbiology& Biochemistry Mahajana College, Mysore University, Mysore, Karnataka, India, and the same was induced into adult Swiss albino mice i.p and left for the growth.
The EAC tumor bearing mice (donor) were taken on the 12th day after tumor transplantation and the ascites fluid was drawn using an 18 gauge needle into a sterile syringe. Then the tumor cell viability was tested by trypan blue exclusion assay and the cells were counted using a haemocytometer. The ascites fluid was suitably diluted to get a concentration of 5×10^6/0.2 ml of tumor cell suspension. This was injected into the i.p cavity of Swiss mice to obtain ascites tumor and the process was repeated every 12 days.
Ascites tumor was obtained by injecting 5×10^6 viable tumor cells into i.p cavity of Swiss mice. Tumor growth was followed by recording the animal weights. These cells grew in the peritoneum of mice, forming an ascites tumor with enormous abdominal swelling and showing a profound increase in body weight. The EAC cells began their exponential growth phase from the 7th day after tumor cell injection and the animals succumbed to the ascites tumor burden between 16 to 20 days after injection of tumor cells.
as §4

[8] = test system: EAC cells; assay: MTT cell viability assay, EAC; format: cell-based, mouse; settings: 48 h, read-out: IC50 value (μM) against EAC cells, MTT assay
Method: as §3

[9] = test system: MCF-7 cells; assay: Trypan blue dye exclusion assay, MCF-7; format: cell-based; settings: Homo sapiens, MCF7; MCF-7, 48 h; read-out: IC50 value (μM) against MCF-7 cells, Trypan blue assay
Method: as §1, §2

[10] = test system: MCF-7 cells; assay: MTT cell viability assay, MCF-7; format: cell-based; settings: Homo sapiens, MCF7; MCF-7, 48 h; read-out: IC50 value (μM) against MCF-7 cells, MTT assay
Method: as §1
as §3, with “After removal of the supernatant, 50 μL of DMSO was added to each of the wells and incubated for 10 min to solubilize the formazan crystals.” left out, “The OD value was used to calculate the percentage of viability using the following formula.” left out

[11] = test system: genomic DNA of cancer cells; assay: DNA fragmentation assay (apoptotic ladder); format: cell-based; settings: treated vs untreated cells
Method: DNA damaging studies were carried out according to previously described methods. The DNA damaging activity of the compound on genomic DNA of both control and treated cells were evaluated by Phenol:Chloroform method. Briefly, the cells were first lysed using lysis buffer (50 mM Tris-Hcl, 0.5% SDS, pH 8.0) and incubated for 30 minutes at […]. The cell lysate was precipitated by using potassium acetate (8M) and incubated at 4° C. for 1 hr. The supernatant was mixed with phenol:Chloroform:isoamylalcohol at 25:24:1 ratio. This step was repeated thrice. DNA was precipitated by adding ice cold alcohol and precipitated DNA was air dried and dissolved by using appropriate amounts of TE Buffer (pH 8.0). Precipitated DNA was subjected to RNase digestion (2 μg/mL) for 1 hr at 37° C. The obtained DNA was quantified by using nanodrop (Eppendrof Ag 22331 Hamburg 6135EM402331) and equal amounts of (50 μg) of DNA were loaded to 1% agarose gel, observed under uv-trans illuminator, and documented.

[12] = test system: A549 cells; assay: Cancer cell migration (scratch wound) assay; format: cell-based; settings: Homo sapiens, 48 h
Method: The A549 cells were cultured in a six well plate until they reached a confluence of 60-70%. A scratch was made to form a wound using a micropipette tip and the monolayer was washed with growth medium. Then, 2 ml medium containing different concentrations of test drugs was added to the respective wells, incubated for 48 h, fixed with chilled 70% ethanol and stained with crystal violet (0.4 g/l). Images were taken from random fields at regular time intervals using an inverted microscope (Bresser, Biolux). Finally, the percentage of cell migration was calculated by comparing the final gap width to initial gap width.

[13] = test system: A549 cells; assay: Trypan blue dye exclusion assay, A549; format: cell-based; settings: Homo sapiens, A549, 48 h; read-out: IC50 value (μM) against A549 cells, Trypan blue assay
Method: as §1, §2

[14] = test system: PBMC cells; assay: MTT cell viability assay, PBMC; format: cell-based, human; settings: 48 h, read-out: IC50 value (μM) against PBMC cells, MTT assay
Method: as §1
as §3, with “After removal of the supernatant, 50 μL of DMSO was added to each of the wells and incubated for 10 min to solubilize the formazan crystals.” left out, “The OD value was used to calculate the percentage of viability using the following formula.” left out

[15] = test system: MCF-7 cells; assay: Colony formation assay; format: cell-based, human; settings: 5, 10, 20 μM, 6 hours pretreatment, 12 days
Method: Long-term effects of the active compound were determined by colony formation with minor modifications. […] Surviving colonies were fixed and stained by using 0.5% crystal violet. Visible colonies were observed and colonies were counted and photographed.

[16] = test system: Hela cells; assay: MTT cell viability assay, Hela; format: cell-based; settings: Homo sapiens, 48 h, read-out: IC50 value (μM) against Hela cells, MTT assay
Method: as §1
as §3, with “After removal of the supernatant, 50 μL of DMSO was added to each of the wells and incubated for 10 min to solubilize the formazan crystals.” left out, “The OD value was used to calculate the percentage of viability using the following formula.” left out

[17] = test system: EAC cells; assay: Trypan blue dye exclusion assay, EAC; format: cell-based, mouse; settings: 48 h, read-out: IC50 value (μM) against EAC cells, Trypan blue assay
Method: The cytotoxic effects of synthesized compounds on various types of cancer cells were determined by trypan blue dye exclusion assay. The cultured cells were treated with the synthesized compounds and incubated for 48 h. After the incubation period, the cells were detached by 0.5% trypan-EDTA solution, harvested by centrifugation at 3000 rpm for 5 minutes and diluted in 1 ml of PBS. Then, 10 μl of trypan blue dye solution was added to each sample and cells were re-suspended. About 20 μl of cell suspensions were carefully and continuously filled in the haemocytometer chamber and viable cells were counted in 1×1 mm squares, four chambers and the average number of cells per square determined. Total viable cells were determined using the following formula,
The values were plotted in MS excel version 8.1, graphed and the inhibitory concentration-50 (IC50) values were estimated.

[18] = test system: NIH-3T3 cells; assay: Toxicity to NIH-3T3 cells; format: cell-based

Compound: Cc1ccccc1OCC(=O)NNC(=O)C1CN(Cc2ccccc2)CCO1 (centres unmarked) [BAMC, 4-Benzyl-N′-(2-(o-tolyloxy)acetyl) morpholine-2-carbohydrazide]
- IC50 [1]: 5.2 ± 1.3 µM
- IC50 [2]: ~5.5 µM
- percentage of caspase-3 activation ([3]; MCF-7, BAMC concentration not stated): 84.5%
- IC50 [4]: 5.6 ± 1 µM
- IC50 ([5]; Homo sapiens): 85.7 ± 0.7 µM
- regression of EAC induced angiogenesis in peritoneum ([6]; first value of 'respectively' (25 mg/kg)): 40%
- regression of EAC induced angiogenesis in peritoneum ([6]; second value of 'respectively' (50 mg/kg)): 15%
- decrease of tumor volume, % of inhibition ([7]; EAC mice, 25 mg/kg bw i.p.): 74.35%
- decrease of tumor volume, % of inhibition ([7]; EAC mice, 50 mg/kg bw i.p.): 80.2%
- adverse effect on normal lymphoid organs (morphology of kidney, liver, spleen) ([7]; EAC mice, 25 and 50 mg/kg): did not show any symptoms of adverse effect
- cell density reduction ([7]; EAC mice, 25 and 50 mg/kg, concentration dependent): six fold reduction
- body weight of tumor bearing mice ([7]; EAT bearing mice, treated vs control): significant decrease in body weight
- IC50 ([8]; Mus musculus): 6.7 ± 1.8 µM
- IC50 [9]: 4.6 ± 1.1 µM
- IC50 [10]: 4.5 ± 2 µM
- DNA fragmentation (apoptotic ladder), agarose gel [11]: typical “ladder (A)” formation of DNA
- inhibition at 10 µM ([12]; A549, 10 μM): 13%
- inhibition at 20 µM ([12]; A549, 20 μM): 72.3%
- IC50 [13]: 5.8 ± 0.7 µM
- IC50 ([14]; Homo sapiens): 89.9 ± 3.5 µM
- colony formation (colonogenic efficiency) [15]: visibly diminished the colonogenic efficiency of MCF-7 cells
- IC50 [16]: 4.9 ± 0.2 µM
- IC50 ([17]; Mus musculus): 6.8 ± 1.4 µM
- toxicity to NIH-3T3 cells [18]: ~97 µM

Compound: N.N.[Cl][Pt][Cl] [Cisplatin, reference compound]
- IC50 [5]: 96.1 ± 0.8 µM
- IC50 [8]: 4.9 ± 1.1 µM
- IC50 [14]: 91.4 ± 1.1 µM
- IC50 [17]: 4.4 ± 1.3 µM

Compound: OO [H2O2, Hydrogen Peroxide, reference compound]
- percentage of caspase-3 activation ([3]; MCF-7, 0.1 mM, positive control): 91.1%
